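Following 48 hours of exposure in 96-well plates, responses at five concentrations were used to interpolate endpoints linearly. Abbreviation: GI50, concentration required for 50% inhibition of growth.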 Active and inactive are the calls of the source. Rule as the data show it: active = GI50 up to about 1.1 µM and inactive = higher.
Key:
Assay in all cases: NCI tumour cell line growth inhibition, 48 h
786-0 = tested on: 786-0
A549 = tested on: A549
ACHN = tested on: ACHN
COLO 205 = tested on: COLO 205
DU-145 = tested on: DU-145
HCC 2998 = tested on: HCC 2998
IGROV-1 = tested on: IGROV-1
KM12 = tested on: KM12
M14 = tested on: M14
MCF7 = tested on: MCF7
MDA-N = tested on: MDA-N
Malme-3M = tested on: Malme-3M
NCI-H460 = tested on: NCI-H460
RPMI-8226 = tested on: RPMI-8226
RXF 393 = tested on: RXF 393
SK-MEL-5 = tested on: SK-MEL-5
SN12C = tested on: SN12C
U-251 = tested on: U-251
UACC-62 = tested on: UACC-62
MDA-MB-231 = tested on: MDA-MB-231

| SMILES | GI50 (786-0) | GI50 (A549) | GI50 (ACHN) | GI50 (COLO 205) | GI50 (DU-145) | GI50 (HCC 2998) | GI50 (IGROV-1) | GI50 (KM12) | GI50 (M14) | GI50 (MCF7) | GI50 (MDA-N) | GI50 (Malme-3M) | GI50 (NCI-H460) | GI50 (RPMI-8226) | GI50 (RXF 393) | GI50 (SK-MEL-5) | GI50 (SN12C) | GI50 (U-251) | GI50 (UACC-62) | GI50 (MDA-MB-231) |
| --- | --- | --- | --- | --- | --- | --- | --- | --- | --- | --- | --- | --- | --- | --- | --- | --- | --- | --- | --- | --- |
| COc1cc(C2c3cc4c(cc3OC(NNC(N)=O)C2C)OCO4)cc(OC)c1OC (stereo unspecified) | 0.185 µM (active) | 0.276 µM (active) | 0.557 µM (active) | 0.0982 µM (active) | 0.585 µM (active) | 0.373 µM (active) | 0.427 µM (active) | 0.107 µM (active) | 0.115 µM (active) | 0.136 µM (active) | 0.0362 µM (active) | 0.828 µM (active) | 0.179 µM (active) | 0.167 µM (active) | 0.525 µM (active) | 0.123 µM (active) | 0.404 µM (active) | 0.126 µM (active) | 0.179 µM (active) | – |
| O=C(O)CCCc1nc2c(n1-c1ccccc1)C(=O)c1ccccc1C2=O | > 100 µM (inactive) | > 100 µM (inactive) | 68.1 µM (inactive) | 52.5 µM (inactive) | > 100 µM (inactive) | 91.8 µM (inactive) | > 100 µM (inactive) | 31.3 µM (inactive) | 19.1 µM (inactive) | 32.6 µM (inactive) | 43.5 µM (inactive) | 21.6 µM (inactive) | > 100 µM (inactive) | 40.7 µM (inactive) | – | – | 52.5 µM (inactive) | > 100 µM (inactive) | 32.8 µM (inactive) | 77.3 µM (inactive) |
| O=C1NC(=S)NC(=O)C1C(c1ccccc1[N+](=O)[O-])C1C(=O)NC(=S)NC1=O.c1ccncc1 | > 100 µM (inactive) | > 100 µM (inactive) | > 100 µM (inactive) | > 100 µM (inactive) | > 100 µM (inactive) | – | – | > 100 µM (inactive) | > 100 µM (inactive) | > 100 µM (inactive) | > 100 µM (inactive) | > 100 µM (inactive) | > 100 µM (inactive) | > 100 µM (inactive) | > 100 µM (inactive) | > 100 µM (inactive) | > 100 µM (inactive) | > 100 µM (inactive) | > 100 µM (inactive) | > 100 µM (inactive) |
| Cn1c(=O)c2c(nc3n2CC(=O)N3CCCCl)n(C)c1=O | > 100 µM (inactive) | > 100 µM (inactive) | > 100 µM (inactive) | > 100 µM (inactive) | > 100 µM (inactive) | > 100 µM (inactive) | > 100 µM (inactive) | > 100 µM (inactive) | > 100 µM (inactive) | > 100 µM (inactive) | > 100 µM (inactive) | – | > 100 µM (inactive) | > 100 µM (inactive) | – | > 100 µM (inactive) | > 100 µM (inactive) | > 100 µM (inactive) | > 100 µM (inactive) | > 100 µM (inactive) |
| COC(=O)/C=C(\C)CC/C=C(\C)CCC1OC1(C)C (stereo unspecified) | 12.6 µM (inactive) | 12.9 µM (inactive) | 13 µM (inactive) | 15.5 µM (inactive) | – | 9.66 µM (inactive) | 12.2 µM (inactive) | 9.48 µM (inactive) | 12.6 µM (inactive) | 11.5 µM (inactive) | 11.7 µM (inactive) | 14.6 µM (inactive) | 13.2 µM (inactive) | – | 13.3 µM (inactive) | 11.4 µM (inactive) | 10.2 µM (inactive) | 11.8 µM (inactive) | 10.1 µM (inactive) | 12.1 µM (inactive) |
| COc1ccc(C(=O)/C=C/c2cccnc2)cc1OC | 4.51 µM (inactive) | 14.3 µM (inactive) | 13.8 µM (inactive) | 10.9 µM (inactive) | 14.6 µM (inactive) | – | 9.64 µM (inactive) | – | 13.4 µM (inactive) | 3.27 µM (inactive) | 12.4 µM (inactive) | 15.2 µM (inactive) | – | 2.6 µM (inactive) | 5.81 µM (inactive) | 14.1 µM (inactive) | 6.25 µM (inactive) | 5.09 µM (inactive) | 14 µM (inactive) | 11.1 µM (inactive) |
| C[C@]12CC/C(=N\O)C=C1CC[C@@H]1[C@@H]2CC[C@]2(C)C(=N/O)/C(=C/c3ccc([N+](=O)[O-])cc3)C[C@@H]12 | 6.65 µM (inactive) | 3.94 µM (inactive) | 5.21 µM (inactive) | 4.9 µM (inactive) | 5.35 µM (inactive) | – | 2.86 µM (inactive) | 4.04 µM (inactive) | 4.05 µM (inactive) | 3.59 µM (inactive) | 4.03 µM (inactive) | 15 µM (inactive) | 44.8 µM (inactive) | 1.87 µM (inactive) | 59.6 µM (inactive) | 3.21 µM (inactive) | 4.27 µM (inactive) | – | 3.52 µM (inactive) | 6.64 µM (inactive) |
| CCN(CC)CCOc1ccc(N2C(=O)c3cccc4cc([N+](=O)[O-])cc(c34)C2=O)cc1 | 4.76 µM (inactive) | 0.977 µM (active) | 3.1 µM (inactive) | 10 µM (inactive) | 10.8 µM (inactive) | 11.6 µM (inactive) | 7.08 µM (inactive) | 12.5 µM (inactive) | 12.4 µM (inactive) | 3.56 µM (inactive) | 14.6 µM (inactive) | 13.8 µM (inactive) | 0.524 µM (active) | – | – | 12.1 µM (inactive) | 17.4 µM (inactive) | 10.8 µM (inactive) | – | 18.8 µM (inactive) |
| Clc1ccc2c(c1)CC1C[N+]3=C(CCCC3)C1=C2 (stereo unspecified) | > 100 µM (inactive) | 39.6 µM (inactive) | > 100 µM (inactive) | 58.1 µM (inactive) | > 100 µM (inactive) | – | > 100 µM (inactive) | 57.8 µM (inactive) | 53.8 µM (inactive) | 61.1 µM (inactive) | > 100 µM (inactive) | 36.6 µM (inactive) | 40.1 µM (inactive) | – | > 100 µM (inactive) | 50.4 µM (inactive) | > 100 µM (inactive) | 34 µM (inactive) | > 100 µM (inactive) | 44.8 µM (inactive) |
| Nc1c([N+](=O)[O-])cc2c3c(cccc13)CC2 | 57.4 µM (inactive) | 78.5 µM (inactive) | > 100 µM (inactive) | 64.1 µM (inactive) | 46 µM (inactive) | > 100 µM (inactive) | > 100 µM (inactive) | > 100 µM (inactive) | > 100 µM (inactive) | – | > 100 µM (inactive) | – | 54.1 µM (inactive) | 55.7 µM (inactive) | 23.1 µM (inactive) | 53.2 µM (inactive) | 62.8 µM (inactive) | 91 µM (inactive) | 85.1 µM (inactive) | 38.9 µM (inactive) |
| CC1=NC(=Cc2cccc(Cl)c2)C(=O)N1n1c(-c2ccccc2)nc2ccccc2c1=O | 48.6 µM (inactive) | 35.8 µM (inactive) | 24.5 µM (inactive) | 36.1 µM (inactive) | 38.9 µM (inactive) | 24.5 µM (inactive) | 23.2 µM (inactive) | 31.6 µM (inactive) | 31.4 µM (inactive) | 20.4 µM (inactive) | 30.4 µM (inactive) | 26.9 µM (inactive) | 19.3 µM (inactive) | 30.2 µM (inactive) | – | 28.2 µM (inactive) | 40.4 µM (inactive) | – | 23.6 µM (inactive) | 48.5 µM (inactive) |
| COc1ccc(C(=O)N2CCN(c3ccc4c(c3)OCC(=O)N4)CC2)cc1OC | > 100 µM (inactive) | > 100 µM (inactive) | > 100 µM (inactive) | > 100 µM (inactive) | > 100 µM (inactive) | > 100 µM (inactive) | > 100 µM (inactive) | > 100 µM (inactive) | > 100 µM (inactive) | > 100 µM (inactive) | > 100 µM (inactive) | > 100 µM (inactive) | > 100 µM (inactive) | > 100 µM (inactive) | – | > 100 µM (inactive) | > 100 µM (inactive) | > 100 µM (inactive) | > 100 µM (inactive) | > 100 µM (inactive) |
| CN(C)C(=O)Oc1ccc(C(=S)Nc2ccccc2)cc1Br | 62.8 µM (inactive) | 33 µM (inactive) | 30.5 µM (inactive) | 24.2 µM (inactive) | 54.5 µM (inactive) | 33.1 µM (inactive) | 21 µM (inactive) | 21.7 µM (inactive) | 18.6 µM (inactive) | 25.8 µM (inactive) | 21.7 µM (inactive) | 33.6 µM (inactive) | 23.1 µM (inactive) | 22.2 µM (inactive) | – | 16.9 µM (inactive) | – | 83 µM (inactive) | 20.3 µM (inactive) | – |
| O=S(=O)(O)c1ccc(O)c(/N=N/c2c(O)ccc3ccccc23)c1 | > 100 µM (inactive) | > 100 µM (inactive) | – | 87.3 µM (inactive) | > 100 µM (inactive) | – | > 100 µM (inactive) | > 100 µM (inactive) | > 100 µM (inactive) | – | > 100 µM (inactive) | – | – | > 100 µM (inactive) | > 100 µM (inactive) | > 100 µM (inactive) | > 100 µM (inactive) | 73.6 µM (inactive) | > 100 µM (inactive) | > 100 µM (inactive) |
| C=C(C)C(=O)OC1C[C@H](COC(C)=O)C2CC=C(CO)C2C2OC(=O)C(=C)[C@H]12 (stereo partly specified) | 27.6 µM (inactive) | > 100 µM (inactive) | 44.3 µM (inactive) | 16.4 µM (inactive) | > 100 µM (inactive) | 47.2 µM (inactive) | > 100 µM (inactive) | > 100 µM (inactive) | 16.3 µM (inactive) | 38.1 µM (inactive) | 34.5 µM (inactive) | 16.8 µM (inactive) | > 100 µM (inactive) | 12.4 µM (inactive) | – | > 100 µM (inactive) | – | > 100 µM (inactive) | 39.6 µM (inactive) | 51.8 µM (inactive) |

Reference: ChEMBL document CHEMBL1201862, “PubChem BioAssay data set” (2004)
